# From patent US8349897B2, “Biphenyloxyacetic acid derivatives for the treatment of respiratory disease” (Astrazeneca AB, priority 2005, dated 2013)
# Biological target: T1, rhCRTh2 (Homo sapiens, UniProt Q9Y5Y4)
# T1 construct: expressed in transfected cells; host or cells: HEK cells (membrane preparation)
# T1 sequence (Q9Y5Y4 1-395): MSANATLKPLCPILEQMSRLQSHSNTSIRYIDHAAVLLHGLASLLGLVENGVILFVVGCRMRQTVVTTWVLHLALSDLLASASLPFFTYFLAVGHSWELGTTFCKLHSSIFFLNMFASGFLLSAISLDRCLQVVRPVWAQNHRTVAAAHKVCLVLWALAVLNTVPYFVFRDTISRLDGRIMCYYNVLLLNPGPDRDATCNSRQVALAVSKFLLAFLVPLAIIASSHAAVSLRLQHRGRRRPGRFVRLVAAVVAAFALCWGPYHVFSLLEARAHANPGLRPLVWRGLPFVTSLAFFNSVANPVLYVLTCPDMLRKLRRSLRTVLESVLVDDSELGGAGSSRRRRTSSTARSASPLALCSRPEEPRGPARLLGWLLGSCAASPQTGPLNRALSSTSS
# Assay: Ligand binding assay ([3H]PGD2 SPA, HEK cell membranes)
# Details: [3H]PGD2 displacement, membranes of HEK cells expressing rhCRTh2/Gα16, SPA beads, 2 hours room temperature; read-out: pIC50 value (converted)
# Procedure: [^3H]PGD2 was purchased from Perkin Elmer Life Sciences with a specific activity of 100-210 Ci/mmol. All other chemicals were of analytical grade.
# HEK cells expressing rhCRTh2/Gα16 were routinely maintained in DMEM containing 10% Foetal Bovine Serum (HyClone), 1 mg/ml geneticin, 2 mM L-glutamine and 1% non-essential amino acids. For the preparation of membranes, the adherent transfected HEKcells were grown to confluence in two layer tissue culture factories (Fisher, catalogue number TKT-170-070E). Maximal levels of receptor expression were induced by addition of […] sodium butyrate for the last 18 hours of culture. The adherent cells were washed once with phosphate buffered saline (PBS, 50 ml per cell factory) and detached by the addition of 50 ml per cell factory of ice-cold membrane homogenisation buffer [20 mM HEPES (pH 7.4), 0.1 mM dithiothreitol, 1 mM EDTA, 0.1 mM phenyl methyl sulphonyl fluoride and 100 μg/ml bacitracin]. […] The final pellet was re-suspended in 4 ml of membrane homogenisation buffer per cell factory used and the protein content determined. […]
# All assays were performed in Corning clear bottomed, white 96-well NBS plates (Fisher). […] (The optimum coating concentrations were determined for each batch of membranes) The beads were pelleted by centrifugation (800×g for 7 minutes at 4° C.), washed once with assay buffer (50 mM HEPES pH 7.4 containing 5 mM magnesium chloride) and finally re-suspended in assay buffer at a bead concentration of 10 mg/ml.
# Each assay contained 20 μl of 6.25 nM [^3H]PGD2, 20 μl membrane saturated SPA beads both in assay buffer and 10 μl of compound solution or 13,14-dihydro-15-keto prostaglandin D2 (DK-PGD2, for determination of non-specific binding, Cayman chemical company). […] The assay plate was incubated at room temperature for 2 hours and counted on a Wallac Microbeta liquid scintillation counter (1 minute per well).
row,IC50,Structure (SMILES)
1,1.58 nM,"C[C@H](Oc1ccc(Cl)cc1-c1ccc(S(=O)(=O)c2ccc(F)cc2)cc1)C(=O)O [Example 8, (2S)-2-({5-chloro-4′-[(4-fluorophenyl)sulfonyl]biphenyl-2-yl}oxy)propanoic acid]"
2,1.58 nM,"C[C@H](Oc1ccc(F)cc1-c1ccc(S(=O)(=O)c2ccccc2)cc1Cl)C(=O)O [Example 15, (2S)-2-{[2′-chloro-5-fluoro-4′-(phenylsulfonyl)biphenyl-2-yl]oxy}propanoic acid]"
3,3.16 nM,"O=C(O)COc1ccc(F)cc1-c1ccc(S(=O)(=O)c2ccccc2)c(C(F)(F)F)c1 [Example 7, {[5-fluoro-4′-(phenylsulfonyl)-3′-(trifluoromethyl)biphenyl-2-yl]oxy}acetic acid]"
